Data published in publication PMC5766581, “NF-κB inducing kinase is a therapeutic target for systemic lupus erythematosus” (Nature Communications, 2018).

Experiments:
human B cells [1] = assay: Human B cell rhCD40L proliferation assay; assay type: cell-based; details: Homo sapiens, B-cell; thymidine incorporation, day four; read-out: Human B cell anti-CD40 proliferation IC50
human B cells [2] = assay: BAFF B cell survival assay (Cell Titer Glo); assay type: cell-based
Description: Human B cells were isolated using Miltenyi Human B cell isolation kit following ficoll separation of buffy coats. […] Mouse B cells were isolated from mouse spleen using Miltenyi mouse B cell isolation kit II. Cells were plated in Co-star 96-well plates at either 50,000 cells/well for the survival assays or at 150,000 cells/well for the proliferation assays. Compounds diluted in DMSO (final DMSO assay concentration = 0.1%) were added to the cells. The cells were incubated with compound for one hour at 37 °C. Stimulus was then added to the plates and survival or proliferation was measured after four days. For the proliferation assays, cells were treated with either Anti-IgM (20 μg/mL) or rhCD40L (10 μg/mL; R&D) or anti-mouse CD40 (100 ng/mL). Proliferation was measured using thymidine incorporation on day four. For the BAFF survival assay, cells were treated with human or mouse rBAFF (R&D Systems) at 10 ng/ml followed by Cell Titer Glo (Promega) to measure survival on day four.

C57BL/6 mice = assay: Delayed-type hypersensitivity model; assay type: in vivo, mouse; details: 200 mg/kg BID P.O.
Description: Mice were immunized with OVA (100 μg, SC) (Sigma) in complete Freund’s adjuvant (Spectrum Chemicals and Laboratory Products) on day 0 and then challenged again with OVA (10 μg in PBS, SC right ear) on day 6. Ear thickness was measured by calipers, and unchallenged ear thickness was subtracted from OVA challenged ear thickness after 24 and 44 h. […] Investigators were not blinded to experimental samples.

PLK2 = biological target: T1, PLK2 (Homo sapiens, UniProt Q9NYY3); assay: SelectScreen kinase panel; assay type: biochemical
T1 construct: purchased Invitrogen / ThermoFisher SelectScreen
T1 sequence (Q9NYY3 whole entry): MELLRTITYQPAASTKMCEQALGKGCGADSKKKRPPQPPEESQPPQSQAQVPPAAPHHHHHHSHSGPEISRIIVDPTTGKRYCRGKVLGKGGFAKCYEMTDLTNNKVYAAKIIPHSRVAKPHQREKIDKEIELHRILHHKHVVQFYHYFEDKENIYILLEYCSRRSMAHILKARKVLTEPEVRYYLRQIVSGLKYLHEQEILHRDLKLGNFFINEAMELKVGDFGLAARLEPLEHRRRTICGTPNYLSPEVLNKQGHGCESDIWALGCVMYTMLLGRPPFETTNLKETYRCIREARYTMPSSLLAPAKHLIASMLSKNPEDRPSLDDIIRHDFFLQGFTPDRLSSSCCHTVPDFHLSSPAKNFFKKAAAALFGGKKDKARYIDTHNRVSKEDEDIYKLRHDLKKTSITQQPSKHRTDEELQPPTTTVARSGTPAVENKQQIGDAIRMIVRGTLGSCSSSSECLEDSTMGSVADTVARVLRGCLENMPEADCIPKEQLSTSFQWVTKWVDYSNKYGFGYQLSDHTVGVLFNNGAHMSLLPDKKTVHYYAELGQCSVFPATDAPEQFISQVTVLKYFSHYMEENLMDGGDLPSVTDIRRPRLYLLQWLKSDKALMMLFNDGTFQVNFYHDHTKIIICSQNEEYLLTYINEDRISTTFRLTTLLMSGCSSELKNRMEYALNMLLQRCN
In short: (§1)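 Invitrogen carries out the selectivity screen with its SelectScreen platform, applying either activity assays (Z′-LYTE peptide phosphorylation, Adapta ADP measurement) or a LanthaScreen ATP-pocket binding assay, per kinase. Results are averaged % inhibition.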

CK2_alpha1 = biological target: T2, CK2_alpha1 (Homo sapiens, UniProt P68400); assay: SelectScreen kinase panel; assay type: biochemical
T2 construct: purchased Invitrogen / ThermoFisher SelectScreen
T2 sequence (P68400 whole entry): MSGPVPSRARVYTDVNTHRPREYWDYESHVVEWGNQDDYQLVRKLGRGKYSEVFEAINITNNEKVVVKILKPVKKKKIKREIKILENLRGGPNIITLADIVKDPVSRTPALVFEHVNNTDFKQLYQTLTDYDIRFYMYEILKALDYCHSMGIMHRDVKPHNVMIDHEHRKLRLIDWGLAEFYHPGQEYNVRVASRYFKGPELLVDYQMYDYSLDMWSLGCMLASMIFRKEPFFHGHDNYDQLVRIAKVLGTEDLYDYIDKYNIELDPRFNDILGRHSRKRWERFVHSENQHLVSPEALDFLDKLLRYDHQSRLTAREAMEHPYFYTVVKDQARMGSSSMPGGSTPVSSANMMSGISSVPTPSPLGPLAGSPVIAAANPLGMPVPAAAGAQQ
In short: as §1

Ron = biological target: T3, Ron (Homo sapiens, UniProt Q04912); assay: SelectScreen kinase panel; assay type: biochemical
T3 construct: purchased Invitrogen / ThermoFisher SelectScreen
In short: as §1

Mink1 = biological target: T4, Mink1 (Homo sapiens, UniProt Q8N4C8); assay: SelectScreen kinase panel; assay type: biochemical
T4 construct: purchased Invitrogen / ThermoFisher SelectScreen
T4 sequence (Q8N4C8 whole entry): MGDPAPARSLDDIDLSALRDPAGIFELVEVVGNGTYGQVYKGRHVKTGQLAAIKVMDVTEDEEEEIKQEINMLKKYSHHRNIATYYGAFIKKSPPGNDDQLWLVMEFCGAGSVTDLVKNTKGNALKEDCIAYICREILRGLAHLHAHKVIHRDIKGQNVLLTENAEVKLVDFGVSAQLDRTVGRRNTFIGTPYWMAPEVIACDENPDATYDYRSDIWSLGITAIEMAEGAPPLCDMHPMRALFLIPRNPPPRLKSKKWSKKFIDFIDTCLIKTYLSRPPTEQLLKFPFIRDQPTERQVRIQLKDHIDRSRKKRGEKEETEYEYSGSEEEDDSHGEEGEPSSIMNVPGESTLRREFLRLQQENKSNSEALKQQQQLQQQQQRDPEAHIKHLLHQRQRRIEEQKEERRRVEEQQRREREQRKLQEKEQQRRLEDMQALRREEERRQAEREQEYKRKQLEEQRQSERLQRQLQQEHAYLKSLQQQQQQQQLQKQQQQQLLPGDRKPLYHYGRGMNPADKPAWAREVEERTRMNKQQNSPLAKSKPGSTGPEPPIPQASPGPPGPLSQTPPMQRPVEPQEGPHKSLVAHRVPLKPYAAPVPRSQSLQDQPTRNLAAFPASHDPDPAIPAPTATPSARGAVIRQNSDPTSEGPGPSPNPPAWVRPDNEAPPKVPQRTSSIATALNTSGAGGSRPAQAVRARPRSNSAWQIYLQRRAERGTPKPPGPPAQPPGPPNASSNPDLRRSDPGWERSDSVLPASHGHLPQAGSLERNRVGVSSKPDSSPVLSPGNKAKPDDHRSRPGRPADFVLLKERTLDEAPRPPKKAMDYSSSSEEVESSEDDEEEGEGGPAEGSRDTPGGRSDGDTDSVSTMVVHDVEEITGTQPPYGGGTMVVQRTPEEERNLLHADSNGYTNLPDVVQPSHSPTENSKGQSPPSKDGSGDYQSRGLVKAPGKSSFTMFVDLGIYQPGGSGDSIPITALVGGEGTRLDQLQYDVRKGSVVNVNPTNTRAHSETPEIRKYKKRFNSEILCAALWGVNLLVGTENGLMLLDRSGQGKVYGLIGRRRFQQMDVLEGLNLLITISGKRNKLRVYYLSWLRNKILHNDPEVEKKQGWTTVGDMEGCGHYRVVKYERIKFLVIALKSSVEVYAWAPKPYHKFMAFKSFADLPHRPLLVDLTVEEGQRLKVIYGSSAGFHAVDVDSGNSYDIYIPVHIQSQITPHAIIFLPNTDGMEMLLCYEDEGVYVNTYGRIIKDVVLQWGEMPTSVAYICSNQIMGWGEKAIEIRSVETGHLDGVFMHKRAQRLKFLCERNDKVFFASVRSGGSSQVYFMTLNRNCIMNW
In short: as §1

ZIPK = biological target: T5, ZIPK (Homo sapiens, UniProt O43293); assay: SelectScreen kinase panel; assay type: biochemical
T5 construct: purchased Invitrogen / ThermoFisher SelectScreen
T5 sequence (O43293 whole entry): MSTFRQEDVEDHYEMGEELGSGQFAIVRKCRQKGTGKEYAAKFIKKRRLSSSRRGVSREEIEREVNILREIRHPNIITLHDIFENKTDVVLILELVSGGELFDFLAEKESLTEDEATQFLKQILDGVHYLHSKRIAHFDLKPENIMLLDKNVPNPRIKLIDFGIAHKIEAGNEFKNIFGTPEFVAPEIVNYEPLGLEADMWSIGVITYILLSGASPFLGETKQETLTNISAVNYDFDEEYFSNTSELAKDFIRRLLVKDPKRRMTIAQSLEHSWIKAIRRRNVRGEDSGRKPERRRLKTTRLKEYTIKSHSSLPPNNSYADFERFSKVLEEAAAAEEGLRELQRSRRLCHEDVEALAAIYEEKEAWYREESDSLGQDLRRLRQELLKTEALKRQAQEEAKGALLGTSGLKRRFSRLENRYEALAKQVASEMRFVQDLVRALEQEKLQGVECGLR
In short: as §1

NEK9 = biological target: T6, NEK9 (Homo sapiens, UniProt Q8TD19); assay: SelectScreen kinase panel; assay type: biochemical
T6 construct: purchased Invitrogen / ThermoFisher SelectScreen
T6 sequence (Q8TD19 whole entry): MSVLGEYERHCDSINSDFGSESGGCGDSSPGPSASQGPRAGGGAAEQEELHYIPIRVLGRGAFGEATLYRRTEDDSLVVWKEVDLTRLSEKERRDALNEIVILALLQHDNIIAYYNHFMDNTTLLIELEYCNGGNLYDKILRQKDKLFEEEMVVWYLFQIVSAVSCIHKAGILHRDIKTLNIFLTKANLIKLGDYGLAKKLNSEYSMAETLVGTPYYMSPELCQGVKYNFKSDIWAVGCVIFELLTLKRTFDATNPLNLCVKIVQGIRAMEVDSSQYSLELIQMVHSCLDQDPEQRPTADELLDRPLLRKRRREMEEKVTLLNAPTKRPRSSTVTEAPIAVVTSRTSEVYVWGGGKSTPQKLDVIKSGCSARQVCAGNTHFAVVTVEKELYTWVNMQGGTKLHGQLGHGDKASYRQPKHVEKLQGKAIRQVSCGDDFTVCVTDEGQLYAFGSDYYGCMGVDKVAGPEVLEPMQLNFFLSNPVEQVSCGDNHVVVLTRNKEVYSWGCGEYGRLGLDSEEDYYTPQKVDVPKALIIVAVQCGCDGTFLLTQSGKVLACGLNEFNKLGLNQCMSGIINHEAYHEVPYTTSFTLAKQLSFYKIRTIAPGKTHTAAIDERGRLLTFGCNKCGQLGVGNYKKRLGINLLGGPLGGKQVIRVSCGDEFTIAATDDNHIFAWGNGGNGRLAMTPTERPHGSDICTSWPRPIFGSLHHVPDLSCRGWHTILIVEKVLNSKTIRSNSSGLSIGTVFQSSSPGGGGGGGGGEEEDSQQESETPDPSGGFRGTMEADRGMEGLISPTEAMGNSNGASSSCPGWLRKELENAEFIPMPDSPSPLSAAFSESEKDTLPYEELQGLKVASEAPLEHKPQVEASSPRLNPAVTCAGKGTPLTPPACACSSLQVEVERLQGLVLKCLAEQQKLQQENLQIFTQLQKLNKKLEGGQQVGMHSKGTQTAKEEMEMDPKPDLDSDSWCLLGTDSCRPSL
In short: as §1

PKC_eta = biological target: T7, PKC_eta (Homo sapiens, UniProt P24723); assay: SelectScreen kinase panel; assay type: biochemical
T7 construct: purchased Invitrogen / ThermoFisher SelectScreen
In short: as §1

NEK1 = biological target: T8, NEK1 (Homo sapiens, UniProt Q96PY6); assay: SelectScreen kinase panel; assay type: biochemical
T8 construct: purchased Invitrogen / ThermoFisher SelectScreen
In short: as §1

ROCK1 = biological target: T9, ROCK1 (Homo sapiens, UniProt Q13464); assay: SelectScreen kinase panel; assay type: biochemical
T9 construct: purchased Invitrogen / ThermoFisher SelectScreen
In short: as §1

PRAK = biological target: T10, PRAK (Homo sapiens, UniProt Q8IW41); assay: SelectScreen kinase panel; assay type: biochemical
T10 construct: purchased Invitrogen / ThermoFisher SelectScreen
In short: as §1

MSSK1 = biological target: T11, MSSK1 (Homo sapiens, UniProt Q9UPE1); assay: SelectScreen kinase panel; assay type: biochemical
T11 construct: purchased Invitrogen / ThermoFisher SelectScreen
In short: as §1

FGFR4 = biological target: T12, FGFR4 (Homo sapiens, UniProt P22455); assay: SelectScreen kinase panel; assay type: biochemical
T12 construct: purchased Invitrogen / ThermoFisher SelectScreen
In short: as §1

ARK5 = biological target: T13, ARK5 (Homo sapiens, UniProt O60285); assay: SelectScreen kinase panel; assay type: biochemical
T13 construct: purchased Invitrogen / ThermoFisher SelectScreen
In short: as §1

CK1_gamma2 = biological target: T14, CK1_gamma2 (Homo sapiens, UniProt P78368); assay: SelectScreen kinase panel; assay type: biochemical
T14 construct: purchased Invitrogen / ThermoFisher SelectScreen
T14 sequence (P78368 whole entry): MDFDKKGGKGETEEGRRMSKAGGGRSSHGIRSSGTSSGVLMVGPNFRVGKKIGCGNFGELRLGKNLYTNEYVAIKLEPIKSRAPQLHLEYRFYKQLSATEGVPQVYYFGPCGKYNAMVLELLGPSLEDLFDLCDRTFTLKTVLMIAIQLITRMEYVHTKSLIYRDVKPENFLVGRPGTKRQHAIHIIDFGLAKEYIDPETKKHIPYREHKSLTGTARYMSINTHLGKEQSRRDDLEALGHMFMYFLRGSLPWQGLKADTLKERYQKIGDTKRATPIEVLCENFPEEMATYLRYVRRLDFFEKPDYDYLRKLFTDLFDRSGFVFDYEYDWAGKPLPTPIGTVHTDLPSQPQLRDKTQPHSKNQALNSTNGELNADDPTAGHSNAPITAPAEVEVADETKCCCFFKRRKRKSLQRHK
In short: as §1

ErbB2 = biological target: T15, ErbB2 (Homo sapiens, UniProt P04626); assay: SelectScreen kinase panel; assay type: biochemical
T15 construct: purchased Invitrogen / ThermoFisher SelectScreen
In short: as §1

TAO1 = biological target: T16, TAO1 (Homo sapiens, UniProt Q9UL54); assay: SelectScreen kinase panel; assay type: biochemical
T16 construct: purchased Invitrogen / ThermoFisher SelectScreen
In short: as §1

CaMKII_beta = biological target: T17, CaMKII_beta (Homo sapiens, UniProt Q13554); assay: SelectScreen kinase panel; assay type: biochemical
T17 construct: purchased Invitrogen / ThermoFisher SelectScreen
T17 sequence (Q13554 whole entry): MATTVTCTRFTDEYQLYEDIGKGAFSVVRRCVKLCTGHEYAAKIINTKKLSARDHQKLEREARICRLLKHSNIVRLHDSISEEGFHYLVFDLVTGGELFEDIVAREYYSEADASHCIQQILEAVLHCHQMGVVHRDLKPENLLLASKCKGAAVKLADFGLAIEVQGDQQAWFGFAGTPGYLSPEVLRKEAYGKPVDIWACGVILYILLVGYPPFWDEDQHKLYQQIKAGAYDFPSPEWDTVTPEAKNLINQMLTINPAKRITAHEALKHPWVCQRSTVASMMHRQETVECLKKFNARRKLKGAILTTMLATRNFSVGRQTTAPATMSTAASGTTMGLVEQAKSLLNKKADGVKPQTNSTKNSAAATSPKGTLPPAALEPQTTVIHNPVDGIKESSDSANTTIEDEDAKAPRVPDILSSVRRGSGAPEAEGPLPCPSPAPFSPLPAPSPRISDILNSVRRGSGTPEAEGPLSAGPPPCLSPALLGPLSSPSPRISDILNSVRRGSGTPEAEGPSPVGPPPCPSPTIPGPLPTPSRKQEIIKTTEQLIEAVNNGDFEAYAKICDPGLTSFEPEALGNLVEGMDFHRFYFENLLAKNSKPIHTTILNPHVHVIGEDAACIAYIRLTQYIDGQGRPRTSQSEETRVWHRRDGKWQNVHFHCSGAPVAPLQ
In short: as §1

JAK1 = biological target: T18, JAK1 (Homo sapiens, UniProt P23458); assay: SelectScreen kinase panel; assay type: biochemical
T18 construct: purchased Invitrogen / ThermoFisher SelectScreen
In short: as §1

For COc1cc(C(N)=O)nc(-c2cccc(C#C[C@]3(O)CCN(C)C3=O)c2)c1 [NIK SMI1], the IC50 (human B cells [1]) was over 10000 nM, the IC50 (human B cells [2]; Homo sapiens, B-cell, BAFF induced, mean ± SD) was 189 nM and the “BAFF-driven survival of B cells in vitro” value (human B cells [2]; human B cells) was “completely inhibited”. The “effect in delayed type hypersensitivity study” value (C57BL/6 mice) was “partial effect”, the inhibition at 1 µM (PLK2) was 4% and the inhibition at 1 µM (CK2_alpha1) was 4.5%. The inhibition at 1 µM (Ron) was 13%, the inhibition at 1 µM (Mink1) was 53.5% and the inhibition at 1 µM (ZIPK) was -5.5%. For the same compound, the inhibition at 1 µM (NEK9) was 1.5%, the inhibition at 1 µM (PKC_eta) was 38% and the inhibition at 1 µM (NEK1) was 31.5%. For the same compound, the inhibition at 1 µM (ROCK1) was 9.5%, the inhibition at 1 µM (PRAK) was 6% and the inhibition at 1 µM (MSSK1) was 11.5%. It also gave an inhibition at 1 µM (FGFR4) of 7.5%, an inhibition at 1 µM (ARK5) of 1.5% and an inhibition at 1 µM (CK1_gamma2) of 8.5%. It also gave an inhibition at 1 µM (ErbB2) of -1.5%, an inhibition at 1 µM (TAO1) of 17% and an inhibition at 1 µM (CaMKII_beta) of 30.5%. It also gave an inhibition at 1 µM (JAK1) of -7%.
